Test results as given in US9696296B2, “Targeting c-Rel O-GlcNAcylation and uses thereof” (California Institute of Technology, priority 2013, dated 2017).

Tests used:
Assay type in all cases: cell-based, human
[1] = system: Jurkat cells; assay: anti-CD3/CD28-induced c-Rel dependent gene expression by quantitative real time PCR
Method: Jurkat cells were treated with PUGNAc (100 μM) for 12 hours and then treated with plate bound anti-CD3/CD28 (2 μg/ml) for 3 hours. Some cells were additionally treated overnight with Streptozotocin (STZ, 2 mM) prior to PUGNAc treatment. Gene expression was analyzed by quantitative real time PCR. In other cases, Jurkat T-REx cell clones expressing wild-type and mutant c-Rel were induced with doxycycline for 22 hrs, treated with PUGNAc overnight and then treated with anti-CD3/C28 for 3 hrs.
DNA-free RNA was prepared using the RNeasy Mini Kit according to the manufacturer's instructions (Qiagen). cDNA was synthesized from 0.5-1.0 μg total RNA using random hexamers (Promega) and Superscript III reverse transcriptase first-strand synthesis kit (Invitrogen, Carlsbad, Calif.). Quantitative real time PCR using cDNA corresponding to 20-60 ng of total RNA and Taqman Gene Expression Assays (Applied Biosystems, Foster City, Calif.) was performed in a Real-Time PCR machine (Realplex, Eppendorf) according to the manufacturer's instructions. The results obtained for individual genes were normalized to the expression of TFR for human genes and UBE2D2 for mouse genes. Quantitative real time PCR (qPCR) was performed at least in three independent experiments in triplicates and the relative levels of indicated genes were calculated with respect to the expression of transferrin receptor. Statistical significance was determined by two-tailed unpaired Student's t test and represented as mean±SEM.

[2] = system: c-Rel binding CD28RE region; assay: Electrophoretic mobility shift assay, anti-CD3/CD28-induced binding of nuclear extracts to CD28RE probe
Method: Jurkat cells were cultured at 1.5×10^6 cells/ml in 6-well plates or 10 cm plates in the presence of 1 μg/ml of Doxycycline for 22 hours for the induction of FLAG-c-Rel. Cells were stimulated for the indicated time points (3 hours) with plate bound anti-CD3 and anti-CD28 (2 μg/ml each). […] PLCγ, Lamin and SP1 were used as loading controls. Cytoplasmic and nuclear extracts were also prepared after culturing in the presence of 1 μg/ml of Doxycycline for 22 hours for the induction of FLAG-c-Rel. FLAG-c-Rel was immunoprecipitated and analyzed with anti-O-GlcNAc antibody.
Nuclear protein extracts were prepared as described^7. Nuclear extracts corresponding to 4-6 μg of protein were tested for DNA binding using the probes containing c-Rel binding CD28RE region and p65 binding IL2-κB region. OCT1 probe was used as a control. In the probe containing CD28RE-NF-IL-2B AP-1 region, the AP site was mutated as previously described to restrict the protein binding only to the CD28RE site in our assays. (Shapiro et al. Mol Cell Biol 17:4051-4058 (1997).) Lysates were incubated with [^32P] γATP labeled probe in the binding buffer (Tris-Cl 10 mM, pH 7.5, Nacl 50 mM, glycerol 4%, MgCl2 1 mM, EDTA 0.1 mM, poly(dI-dC) 50 μg/ml, and 0.1 mM DTT) for 20 min at room temperature. […] Samples were separated in 5% non-denaturing polyacrylamide gel and analyzed by autoradiography.

[3] = system: c-Rel; assay: c-Rel O-GlcNAcylation, immunoprecipitation and anti-O-GlcNAc western blot; conditions: Jurkat cells, 30 mM glucose, PUGNAc 100 μM for 3 hrs
[4] = system: Jurkat T-REx cell clones; assay: TNF-induced NF-κB-dependent gene expression by qPCR; conditions: TNF 100 ng/ml 3 hrs, PUGNAc overnight
Method: Cells were treated with TNF (100 ng/ml) for 3 hrs. Jurkat T-REx cell clones expressing wild-type and mutant c-Rel were induced with doxycycline for 22 hrs, treated with PUGNAc overnight and then treated with anti-CD3/C28 for 3 hrs. Quantitative real time PCR (qPCR) was performed at least in three independent experiments in triplicates and the relative levels of indicated genes were calculated with respect to the expression of transferrin receptor. Statistical significance was determined by two-tailed unpaired Student's t test and represented as mean±SEM.

[5] = system: c-Rel; assay: TNF-induced nuclear translocation assay, c-Rel; conditions: Jurkat cells, PUGNAc overnight then TNF
Method: (§1) Jurkat cells were treated overnight with PUGNAc and then with TNF. Nuclear extracts were analyzed for c-Rel and p65 nuclear translocation. p105 was used as the loading control.

[6] = system: p65; assay: TNF-induced nuclear translocation assay, p65; conditions: Jurkat cells, PUGNAc overnight then TNF
Method: as §1

[7] = Jurkat cells, PUGNAc 100 μM 12 hours, then anti-CD3/CD28 3 hours

Structure (SMILES): CN(N=O)C(=O)N[C@H]1C(O)O[C@H](CO)[C@@H](O)[C@@H]1O (mixture of isomers) [Streptozotocin]
- anti-CD3/CD28-induced c-Rel-dependent gene expression (GMCSF) ([1]; STZ 2 mM overnight): enhanced

Structure (SMILES): [N-]=[N+]=CC(=O)CC[C@H](N)C(=O)O [DON, 6-diazo-5-oxo-L-norleucine]
- anti-CD3/CD28-induced CD28RE binding of nuclear extracts ([2]; wild-type c-Rel expressing Jurkat cells, DON overnight): decreased

Structure (SMILES): CC(=O)N[C@H]1/C(=N/OC(=O)Nc2ccccc2)O[C@H](CO)[C@@H](O)[C@@H]1O [PUGNAc, O-(2-acetamido-2-deoxy-D-glucopyranosylidene)amino-N-phenylcarbamate]
- O-GlcNAcylation of c-Rel [3]: further enhanced the O-GlcNAcylation of c-Rel
- anti-CD3/CD28-induced CD28RE DNA binding ([2]; PUGNAc and high glucose treatment): significantly increased
- expression of c-Rel-dependent genes in wild-type versus mutant c-Rel cells ([1]; Jurkat T-REx clones expressing wild-type or S350A c-Rel, PUGNAc overnight, anti-CD3/CD28 3 hrs): significantly potentiated the expression of c-Rel-dependent genes only in wild-type c-Rel expressing cells
- anti-CD3/CD28-induced expression of GMCSF [1, 7]: significantly potentiated
- anti-CD3/CD28-induced expression of IL-2 [1, 7]: significantly potentiated
- TCR-induced expression of A20 and IκBα ([1]; PUGNAc treatment): did not observe any effect
- TNF-induced expression of A20 [4]: neither affected
- TNF-induced expression of IκBα [4]: neither affected
- TNF induced c-Rel nuclear translocation [5]: no effect
- TNF-induced nuclear p65 levels [6]: decreased
